Tests used:
[1] = target: Human M3 receptor (Homo sapiens, UniProt P20309); conditions: read-out: M3 binding affinity
[2] = target: Human β2 adrenoceptor (Homo sapiens, UniProt P07550); conditions: read-out: B2 binding affinity
Chain of Human β2 adrenoceptor (P07550 whole entry): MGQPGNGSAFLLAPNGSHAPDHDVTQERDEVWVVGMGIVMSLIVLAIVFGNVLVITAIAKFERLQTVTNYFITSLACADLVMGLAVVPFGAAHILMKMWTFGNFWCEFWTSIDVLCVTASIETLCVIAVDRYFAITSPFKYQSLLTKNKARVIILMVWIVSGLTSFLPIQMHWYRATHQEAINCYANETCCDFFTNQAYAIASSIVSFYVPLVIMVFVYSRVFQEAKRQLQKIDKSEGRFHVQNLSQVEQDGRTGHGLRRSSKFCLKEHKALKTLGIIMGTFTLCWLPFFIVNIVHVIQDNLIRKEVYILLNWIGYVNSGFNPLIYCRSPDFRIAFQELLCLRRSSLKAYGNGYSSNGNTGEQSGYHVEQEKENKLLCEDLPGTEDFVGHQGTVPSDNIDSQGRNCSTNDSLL

Chain of Human M3 receptor (P20309 whole entry): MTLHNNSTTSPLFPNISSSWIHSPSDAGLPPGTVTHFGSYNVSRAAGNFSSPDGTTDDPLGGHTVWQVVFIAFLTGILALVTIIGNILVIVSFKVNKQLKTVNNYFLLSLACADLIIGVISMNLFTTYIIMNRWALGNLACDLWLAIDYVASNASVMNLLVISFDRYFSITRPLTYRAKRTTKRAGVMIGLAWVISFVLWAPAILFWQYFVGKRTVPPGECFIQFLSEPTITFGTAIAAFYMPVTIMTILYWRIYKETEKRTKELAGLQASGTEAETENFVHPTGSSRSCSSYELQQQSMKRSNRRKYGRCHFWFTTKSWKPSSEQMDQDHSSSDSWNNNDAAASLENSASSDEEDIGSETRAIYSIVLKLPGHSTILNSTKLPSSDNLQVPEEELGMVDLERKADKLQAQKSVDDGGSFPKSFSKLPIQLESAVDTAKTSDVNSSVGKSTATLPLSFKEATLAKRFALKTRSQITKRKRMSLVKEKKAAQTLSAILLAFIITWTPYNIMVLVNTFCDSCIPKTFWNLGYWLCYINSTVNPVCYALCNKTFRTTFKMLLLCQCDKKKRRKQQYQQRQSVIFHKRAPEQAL

Structure (SMILES) | IC50 [1] [nM] | IC50 [2] [nM]
O=C(COc1cccc([C@](O)(C(=O)OCC2CCN(Cc3ccccc3)CC2)c2ccccc2)c1)N1C[C@@H]2CCN(C(=O)c3ccc(CCNC[C@H](O)c4ccc(O)c5[nH]c(=O)ccc45)cc3)[C@@H]2C1 [Compound 112, (1-benzylpiperidin-4-yl)methyl (S)-2-hydroxy-2-(3-(2-((3aS,6aS)-1-(4-(2-(((R)-2-hydroxy-2-(8-hydroxy-2-oxo-1,2-dihydroquinolin-5-yl)ethyl)amino)ethyl)benzoyl)hexahydropyrrolo[3,4-b]pyrrol-5(1H)-yl)-2-oxoethoxy)phenyl)-2-phenylacetate] | 0.3 to 3 | < 0.3
O=C(N[C@@H]1CCCN(C(=O)COc2cccc([C@](O)(C(=O)OCC3CCN(Cc4ccccc4)CC3)c3ccccc3)c2)C1)c1ccc(CCNC[C@H](O)c2ccc(O)c3[nH]c(=O)ccc23)cc1 [Compound 113, (1-benzylpiperidin-4-yl)methyl (S)-2-hydroxy-2-(3-(2-((R)-3-(4-(2-(((R)-2-hydroxy-2-(8-hydroxy-2-oxo-1,2-dihydroquinolin-5-yl)ethyl)amino)ethyl)benzamido)piperidin-1-yl)-2-oxoethoxy)phenyl)-2-phenylacetate] | 0.3 to 3 | 0.3 to 3
O=C(N[C@H]1C[C@H](NC(=O)c2ccc(COc3cccc([C@](O)(C(=O)OCC4CCN(Cc5ccccc5)CC4)c4ccccc4)c3)cc2)C1)c1ccc(CCNC[C@H](O)c2ccc(O)c3[nH]c(=O)ccc23)cc1 [Compound 114, (1-Benzylpiperidin-4-yl)methyl (S)-2-hydroxy-2-(3-((4-(((1R,3S)-3-(4-(2-(((R)-2-hydroxy-2-(8-hydroxy-2-oxo-1,2-dihydroquinolin-5-yl)ethyl)amino)-ethyl)benzamido)cyclobutyl)carbamoyl)benzyl)oxy)phenyl)-2-phenylacetate] | 0.3 to 3 | 0.3 to 3
O=C(c1ccc(CCNC[C@H](O)c2ccc(O)c3[nH]c(=O)ccc23)cc1)N1CCC2(CC1)CCN(C(=O)c1ccc(COc3cccc([C@](O)(C(=O)OCC4CCN(Cc5ccccc5)CC4)c4ccccc4)c3)cc1)CC2 [Compound 115, (1-benzylpiperidin-4-yl)methyl (S)-2-hydroxy-2-(3-((4-(9-(4-(2-(((R)-2-hydroxy-2-(8-hydroxy-2-oxo-1,2-dihydroquinolin-5-yl)ethyl)amino)ethyl)benzoyl)-3,9-diazaspiro[5.5]undecane-3-carbonyl)benzyl)oxy)phenyl)-2-phenylacetate] | 0.3 to 3 | 0.3 to 3
O=C(c1ccc(CCNC[C@H](O)c2ccc(O)c3[nH]c(=O)ccc23)cc1)N1CC2(C1)CN(C(=O)c1ccc(COc3cccc([C@](O)(C(=O)OCC4CCN(Cc5ccccc5)CC4)c4ccccc4)c3)cc1)C2 [Compound 116, (1-benzylpiperidin-4-yl)methyl (S)-2-hydroxy-2-(3-((4-(6-(4-(2-(((R)-2-hydroxy-2-(8-hydroxy-2-oxo-1,2-dihydroquinolin-5-yl)ethyl)amino)ethyl)benzoyl)-2,6-diazaspiro[3.3]heptane-2-carbonyl)benzyl)oxy)phenyl)-2-phenylacetate] | 0.3 to 3 | < 0.3
O=C(c1ccc(CCNC[C@H](O)c2ccc(O)c3[nH]c(=O)ccc23)cc1)N1CCC2(CC1)CN(C(=O)c1ccc(COc3cccc([C@](O)(C(=O)OCC4CCN(Cc5ccccc5)CC4)c4ccccc4)c3)cc1)C2 [Compound 117, (1-benzylpiperidin-4-yl)methyl (S)-2-hydroxy-2-(3-((4-(7-(4-(2-(((R)-2-hydroxy-2-(8-hydroxy-2-oxo-1,2-dihydroquinolin-5-yl)ethyl)amino)ethyl)benzoyl)-2,7-diazaspiro[3.5]nonane-2-carbonyl)benzyl)oxy)phenyl)-2-phenylacetate] | 0.3 to 3 | < 0.3
O=C(c1ccc(CCNC[C@H](O)c2ccc(O)c3[nH]c(=O)ccc23)cc1)N1CCN(C(=O)c2ccc(COc3cccc([C@](O)(C(=O)OCC4CCN(Cc5ccccc5)CC4)c4ccccc4)c3)cc2)CC1 [Compound 118, (1-benzylpiperidin-4-yl)methyl (S)-2-hydroxy-2-(3-((4-(4-(4-(2-(((R)-2-hydroxy-2-(8-hydroxy-2-oxo-1,2-dihydroquinolin-5-yl)ethyl)amino)ethyl)benzoyl)piperazine-1-carbonyl)benzyl)oxy)phenyl)-2-phenylacetate] | < 0.3 | 0.3 to 3
O=C(c1ccc(COc2cccc([C@](O)(C(=O)OCC3CCN(Cc4ccccc4)CC3)c3ccccc3)c2)cc1)N1CCC2(CC1)CN(C(=O)c1ccc(CCNC[C@H](O)c3ccc(O)c4[nH]c(=O)ccc34)cc1)C2 [Compound 119, (1-benzylpiperidin-4-yl)methyl (S)-2-hydroxy-2-(3-((4-(2-(4-(2-(((R)-2-hydroxy-2-(8-hydroxy-2-oxo-1,2-dihydroquinolin-5-yl)ethyl)amino)ethyl)benzoyl)-2,7-diazaspiro[3.5]nonane-7-carbonyl)benzyl)oxy)phenyl)-2-phenylacetate] | < 0.3 | 0.3 to 3
O=C(c1ccc(CCNC[C@H](O)c2ccc(O)c3[nH]c(=O)ccc23)cc1)N1CCCC2(C1)CN(C(=O)c1ccc(COc3cccc([C@](O)(C(=O)OCC4CCN(Cc5ccccc5)CC4)c4ccccc4)c3)cc1)C2 [Compound 120, (1-benzylpiperidin-4-yl)methyl (S)-2-hydroxy-2-(3-((4-(6-(4-(2-(((R)-2-hydroxy-2-(8-hydroxy-2-oxo-1,2-dihydroquinolin-5-yl)ethyl)amino)ethyl)benzoyl)-2,6-diazaspiro[3.5]nonane-2-carbonyl)benzyl)oxy)phenyl)-2-phenylacetate] | < 0.3 | < 0.3
O=C(c1ccc(CCNC[C@H](O)c2ccc(O)c3[nH]c(=O)ccc23)cc1)N1CCC2(CC1)CN(C(=O)c1ccc(COc3cccc([C@](O)(C(=O)OCC4CCN(Cc5ccccc5)CC4)c4ccccc4)c3)cc1)CCO2 [Compound 121, (1-benzylpiperidin-4-yl)methyl (S)-2-hydroxy-2-(3-((4-(9-(4-(2-(((R)-2-hydroxy-2-(8-hydroxy-2-oxo-1,2-dihydroquinolin-5-yl)ethyl)amino)ethyl)benzoyl)-1-oxa-4,9-diazaspiro[5.5]undecane-4-carbonyl)benzyl)oxy)phenyl)-2-phenylacetate] | < 0.3 | < 0.3
O=C(c1ccc(CCNC[C@H](O)c2ccc(O)c3[nH]c(=O)ccc23)cc1)N1CCC2(CCCN(C(=O)c3ccc(COc4cccc([C@](O)(C(=O)OCC5CCN(Cc6ccccc6)CC5)c5ccccc5)c4)cc3)C2)CC1 [Compound 122, (1-benzylpiperidin-4-yl)methyl (S)-2-hydroxy-2-(3-((4-(9-(4-(2-(((R)-2-hydroxy-2-(8-hydroxy-2-oxo-1,2-dihydroquinolin-5-yl)ethyl)amino)ethyl)benzoyl)-2,9-diazaspiro[5.5]undecane-2-carbonyl)benzyl)oxy)phenyl)-2-phenylacetate] | 0.3 to 3 | > 3
O=C(N[C@H]1C[C@H](NC(=O)c2ccc(COc3cccc([C@](O)(C(=O)OCC4CCN(Cc5ccccc5)CC4)c4ccccc4)c3)cc2)C1)c1ccc(CNC[C@H](O)c2ccc(O)c3[nH]c(=O)ccc23)cc1 [Compound 123, (1-benzylpiperidin-4-yl)methyl (S)-2-hydroxy-2-(3-((4-(((1R,3S)-3-(4-((((R)-2-hydroxy-2-(8-hydroxy-2-oxo-1,2-dihydroquinolin-5-yl)ethyl)amino)methyl)benzamido)cyclobutyl)carbamoyl)benzyl)oxy)phenyl)-2-phenylacetate] | 0.3 to 3 | 0.3 to 3
COc1cc(C(=O)N[C@H]2C[C@H](NC(=O)c3ccc(COc4cccc([C@](O)(C(=O)OCC5CCN(Cc6ccccc6)CC5)c5ccccc5)c4)cc3)C2)ccc1CNC[C@H](O)c1ccc(O)c2[nH]c(=O)ccc12 [Compound 124, (1-benzylpiperidin-4-yl)methyl (S)-2-hydroxy-2-(3-((4-(((1R,3S)-3-(4-((((R)-2-hydroxy-2-(8-hydroxy-2-oxo-1,2-dihydroquinolin-5-yl)ethyl)amino)methyl)-3-methoxybenzamido)cyclobutyl)carbamoyl)benzyl)oxy)phenyl)-2-phenylacetate] | 0.3 to 3 | 0.3 to 3
O=C(NCCNC(=O)c1ccc(COc2cccc([C@](O)(C(=O)OCC3CCN(Cc4ccccc4)CC3)c3ccccc3)c2)cc1)c1ccc(CNC[C@H](O)c2ccc(O)c3[nH]c(=O)ccc23)cc1 [Compound 125, (1-benzylpiperidin-4-yl)methyl (S)-2-hydroxy-2-(3-((4-((2-(4-((((R)-2-hydroxy-2-(8-hydroxy-2-oxo-1,2-dihydroquinolin-5-yl)ethyl)amino)methyl)benzamido)ethyl)carbamoyl)benzyl)oxy)phenyl)-2-phenylacetate] | 0.3 to 3 | 0.3 to 3
COc1cc(C(=O)NCCNC(=O)c2ccc(COc3cccc([C@](O)(C(=O)OCC4CCN(Cc5ccccc5)CC4)c4ccccc4)c3)cc2)ccc1CNC[C@H](O)c1ccc(O)c2[nH]c(=O)ccc12 [Compound 126, (1-benzylpiperidin-4-yl)methyl (S)-2-hydroxy-2-(3-((4-((2-(4-((((R)-2-hydroxy-2-(8-hydroxy-2-oxo-1,2-dihydroquinolin-5-yl)ethyl)amino)methyl)-3-methoxybenzamido)ethyl)carbamoyl)benzyl)oxy)phenyl)-2-phenylacetate] | 0.3 to 3 | 0.3 to 3
O=C(COc1cccc([C@](O)(C(=O)OCC2CCN(Cc3ccccc3)CC2)c2ccccc2)c1)N[C@H]1C[C@H](NC(=O)c2ccc(CNC[C@H](O)c3ccc(O)c4[nH]c(=O)ccc34)c(O)c2)C1 [Compound 127, (1-Benzylpiperidin-4-yl)methyl (S)-2-hydroxy-2-(3-(2-(((1R,3S)-3-(3-hydroxy-4-((((R)-2-hydroxy-2-(8-hydroxy-2-oxo-1,2-dihydroquinolin-5-yl)ethyl)amino)methyl)-benzamido)cyclobutyl)amino)-2-oxoethoxy)phenyl)-2-phenylacetate] | < 0.3 | < 0.3

— patent US9579314B2 (priority 2015, dated 2017)
